Results: patent publication US20140066498A1, “TRITERPENOID DERIVATIVES, BENZENOID DERIVATIVES, AND PHARMACEUTICAL COMPOSITIONS CONTAINING THE SAME” (National Cheng Kung University, priority 2010, published 2014)
Converted amounts (≈) assume the structure as drawn. Where two headings read alike, the source gives them in different places.

Columns and labels:
[1] = target: T1, nitric oxide synthase (NOS) (Mus musculus, UniProt P29477); assay: NOS activity: LPS-induced NO production in murine microglial cells (BV2)
T1 sequence (P29477 1-1144): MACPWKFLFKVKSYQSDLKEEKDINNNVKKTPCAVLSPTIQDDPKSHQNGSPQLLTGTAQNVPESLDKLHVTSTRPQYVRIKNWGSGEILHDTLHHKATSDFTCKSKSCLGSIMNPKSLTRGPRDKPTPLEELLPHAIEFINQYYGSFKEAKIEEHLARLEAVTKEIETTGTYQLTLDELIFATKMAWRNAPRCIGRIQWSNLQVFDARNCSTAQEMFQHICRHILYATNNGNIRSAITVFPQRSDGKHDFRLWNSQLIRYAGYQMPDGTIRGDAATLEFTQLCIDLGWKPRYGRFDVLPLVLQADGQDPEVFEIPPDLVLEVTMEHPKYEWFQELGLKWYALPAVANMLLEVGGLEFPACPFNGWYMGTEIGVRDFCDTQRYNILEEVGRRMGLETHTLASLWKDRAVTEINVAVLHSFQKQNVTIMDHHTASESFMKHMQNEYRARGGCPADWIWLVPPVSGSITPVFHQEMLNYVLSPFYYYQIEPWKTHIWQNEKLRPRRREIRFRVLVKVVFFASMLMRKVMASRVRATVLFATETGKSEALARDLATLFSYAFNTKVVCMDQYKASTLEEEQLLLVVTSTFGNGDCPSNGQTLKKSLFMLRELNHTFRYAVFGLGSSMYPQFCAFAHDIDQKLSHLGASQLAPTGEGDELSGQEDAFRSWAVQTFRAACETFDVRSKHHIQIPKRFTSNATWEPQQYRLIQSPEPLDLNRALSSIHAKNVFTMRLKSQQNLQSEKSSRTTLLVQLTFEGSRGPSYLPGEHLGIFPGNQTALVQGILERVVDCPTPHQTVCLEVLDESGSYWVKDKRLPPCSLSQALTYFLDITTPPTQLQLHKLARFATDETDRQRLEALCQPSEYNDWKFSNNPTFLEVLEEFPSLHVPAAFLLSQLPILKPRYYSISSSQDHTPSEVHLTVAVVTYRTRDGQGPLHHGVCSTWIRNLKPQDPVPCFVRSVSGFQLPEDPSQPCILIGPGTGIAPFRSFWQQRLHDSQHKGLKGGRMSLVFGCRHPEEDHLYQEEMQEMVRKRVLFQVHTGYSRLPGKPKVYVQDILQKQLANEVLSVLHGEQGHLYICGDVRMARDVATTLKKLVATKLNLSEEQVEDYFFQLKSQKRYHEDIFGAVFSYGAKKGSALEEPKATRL
Description: Microglial cell culture and measurements of mitric oxide (NO). The murine microglial cell line (BV2) was cultured, and the production of NO was measured by the methods as previously described (Wang, Y. H.; Wang, W. Y.; Chang, C. C.; Liou, K. T.; Sung, Y. J.; Liao, J. F.; Chen, C. F.; Chang, S.; Hou, Y. C.; Chou, Y. C.; Shen, Y. C. J. Biomed. Sci. 2006, 13, 127-141).

[2] = test system: KB-VIN (multidrug-resistant strain); assay: Cytotoxicity assay against KB-VIN cells in vitro; type: cell-based, human
[3] = test system: MCF-7 (human breast adenocarcinoma); assay: MTT cytotoxicity assay, MCF-7; type: cell-based; conditions: MCF-7 cell line
Description: (§1) Compounds II-7-II-9, II-13, II-14, II-20, II-21, II-25-II-33, and II-36 were assayed for cytotoxic activity against Doay (human medulloblastoma), Hep2 (human laryngeal carcinoma), MCF-7 (human breast adenocarcinoma), and Hela (human cervical epitheloid carcinoma) cell lines, using a MTT assay method.

[4] = test system: Daoy (human medulloblastoma); assay: MTT cytotoxicity assay, Daoy; type: cell-based; conditions: Daoy cell line
Description: as §1

[5] = test system: Hela (human cervical epitheloid carcinoma); assay: MTT cytotoxicity assay, Hela; type: cell-based; conditions: Hela cell line
Description: as §1

[6] = test system: Hep2 (human laryngeal carcinoma); assay: MTT cytotoxicity assay, Hep2; type: cell-based; conditions: Hep2 cell line
Description: as §1

KB (human cancer cell) = assay: Cytotoxicity assay against KB cells in vitro; type: cell-based; conditions: NA@20 given for inactive
NADPH oxidase (NOX) = NADPH oxidase (NOX) (Homo sapiens, UniProt P04839); type: cell-based; conditions: ROS production triggered with fMLP (2 μM), 1-50 μM test drug, peripheral human neutrophils; mean ± S.E.M.; read-out: IC50 (μM) in NOX fMLP-induced NOX activation in PMN
[7] = read-out: IC50 (μM) in NOS, LPS-induced NO production in BV2 cells, 1-50 μM test drug, mean ± S.E.M.

C=C(CC[C@@H](C)C1CCC2C3=C(C(=O)C[C@@]21C)[C@@]1(C)CCC(O)[C@@H](C)C1CC3O)C(C)C(=O)O (stereo in doubt) [Compound I-2, 3α,7β-dihydroxy-11-oxo-4α-methylergosta-8,24(28)-dien-26-oic acid]
IC50 [1]: 15.7 ± 0.9 µM
EC50 (μM) KB-VIN [2]: NA@20

C=C(CC[C@@H](C)C1CCC2C3=C(C(=O)C[C@@]21C)[C@@]1(C)CCC(O)[C@@H](C)C1CC3=O)C(C)C(=O)OC (stereo in doubt) [Compound I-5, methyl-3α-hydroxy-7,11-dioxo-4α-methylergosta-8,24(28)-dien-26-oate]
ED50 (μg/mL) MCF-7 [3]: 6.6 µg/mL (≈ 13.6 µM)
ED50 (μg/mL) Daoy [4]: 5.2 µg/mL (≈ 10.7 µM)
ED50 (μg/mL) Hela [5]: 9.0 µg/mL (≈ 18.6 µM)
ED50 (μg/mL) Hep2 [6]: 7.0 µg/mL (≈ 14.4 µM)
EC50 (KB (human cancer cell); Homo sapiens): 0.45 µM
EC50 ([2]; Homo sapiens, KBVIN): 2.7 µM

C=C(CC[C@@H](C)C1CCC2C3=C(C(=O)C[C@@]21C)[C@@]1(C)CCC(=O)[C@@H](C)C1CC3O)C(C)C(=O)OC (stereo in doubt) [Compound I-6, methyl-7β-hydroxy-3,11-dioxo-4α-methylergosta-8,24(28)-dien-26-oate]
ED50 (μg/mL) MCF-7 [3]: 7.9 µg/mL (≈ 16.3 µM)
ED50 (μg/mL) Daoy [4]: 4.4 µg/mL (≈ 9.08 µM)
IC50 [1]: 2.5 µM
ED50 (μg/mL) Hela [5]: 8.9 µg/mL (≈ 18.4 µM)
ED50 (μg/mL) Hep2 [6]: 3.0 µg/mL (≈ 6.19 µM)
melting point: 100 to 101 °C
EC50 (KB (human cancer cell); Homo sapiens): 2 µM
EC50 ([2]; Homo sapiens, KBVIN): 2.9 µM

C=C(CC[C@@H](C)C1CCC2C3=C(C(=O)C[C@@]21C)[C@@]1(C)CCC(=O)[C@@H](C)C1CC3O)C(C)C(=O)O (stereo in doubt) [Compound I-7, 7α-hydroxy-3,11-dioxo-4α-methylergosta-8,24(28)-dien-26-oic acid]
EC50 (KB (human cancer cell); Homo sapiens): 15 µM
EC50 ([2]; Homo sapiens, KBVIN): 17.5 µM

C=C(CC[C@@H](C)C1CCC2C3=C(C(=O)[C@H](O)[C@@]21C)[C@@]1(C)CC[C@@H](O)[C@@H](C)C1C[C@H]3O)C(C)C(=O)O (stereo partly drawn) [Compound I-1, 3α,7β,11α-trihydroxy-11-oxo-4α-methylergosta-8,24(28)-dien-26-oic acid]
melting point: 117 to 119 °C
EC50 (μM) KB (KB (human cancer cell)): NA@20
EC50 (μM) KB-VIN [2]: NA@20

C=C(CC[C@@H](C)C1CCC2C3=C(C(=O)C[C@@]21C)[C@@]1(C)CC[C@@H](O)[C@](C)(O)C1CC3=O)C(C)C(=O)O (stereo partly drawn) [Compound I-3, 3α,4β-dihydroxy-7,11-dioxo-4α-methylergosta-8,24(28)-dien-26-oic acid]
melting point: 186 to 188 °C
EC50 (KB (human cancer cell); Homo sapiens): 0.3 µM
EC50 ([2]; Homo sapiens, KBVIN): 2.3 µM

C=C(CC[C@@H](C)[C@H]1CC[C@@]2(O)C3=C(C(=O)C[C@]12C)[C@@]1(C)CCC(=O)[C@@H](C)C1C[C@@H]3O)C(C)C(=O)O (stereo partly drawn) [Compound I-4, 7β,14α-dihydroxy-3,11-dioxo-4α-methylergosta-8,24(28)-dien-26-oic acid]
melting point: 175 to 177 °C
EC50 (KB (human cancer cell); Homo sapiens): 1 µM
EC50 ([2]; Homo sapiens, KBVIN): 1.4 µM

C=C(CC[C@@H](C)[C@H]1CC[C@H]2C3=C(C(=O)C[C@]12C)[C@@]1(C)CCC(=O)[C@@H](C)C1CC3)C(C)C (stereo partly drawn) [Compound I-8, 4α-methylergosta-8,24(28)-dien-3,11-dione]
EC50 (μM) KB (KB (human cancer cell)): NA@20
EC50 (μM) KB-VIN [2]: NA@20

C[C@H](C=C[C@H](C)[C@H](C)CO)[C@H]1CC[C@H]2C3=CCC4CC(=O)CC[C@]4(C)[C@H]3CC[C@]12C (stereo partly drawn) [Compound I-9, (25S)-26-hydroxy-ergosta-7,22-dien-3-one]
IC50 [1]: 12.7 ± 2.2 µM
melting point: 192 to 193 °C
EC50 (μM) KB (KB (human cancer cell)): NA@20
EC50 (μM) KB-VIN [2]: NA@20

C=C(CC[C@@H](C)[C@H]1CC[C@H]2C3=C(C(=O)C[C@]12C)[C@@]1(C)CCC(=O)[C@@H](C)[C@@H]1CC3=O)C(C)C(=O)O (stereo partly shown) [Compound I-11, zhankuic acid A]
ED50 (μg/mL) MCF-7 [3]: — (ED50 > 20 μg/mL)
ED50 (μg/mL) Daoy [4]: — (ED50 > 20 μg/mL)
IC50 [1, 7]: 3.6 µM
ED50 (μg/mL) Hela [5]: — (ED50 > 20 μg/mL)
ED50 (μg/mL) Hep2 [6]: 16.6 µg/mL (≈ 35.4 µM)
EC50 (KB (human cancer cell)): 3 µM
IC50 (NADPH oxidase (NOX)): 22.1 ± 6.7 µM
EC50 [2]: 6.2 µM

C=C(CC[C@@H](C)[C@H]1CC[C@H]2C3=C(C(=O)C[C@]12C)[C@@]1(C)CC[C@@H](O)[C@@H](C)[C@@H]1CC3=O)C(C)C(=O)O (stereo partly shown) [Compound I-12, zhankuic acid B]
IC50 [1, 7]: 9.6 ± 0.7 µM
EC50 (KB (human cancer cell)): 7.3 µM
EC50 [2]: 8.5 µM

C=C(CC[C@@H](C)[C@H]1CC[C@H]2C3=C(C(=O)C[C@]12C)[C@@]1(C)CCC(=O)[C@@H](C)[C@@H]1CC3=O)C(C)C(=O)OC (stereo partly shown) [Compound I-14, zhankuic acid A methyl ester]
IC50 [1, 7]: 0.6 µM
EC50 (KB (human cancer cell)): > 20 µM
IC50 (NADPH oxidase (NOX)): 8.4 ± 2.1 µM
EC50 [2]: > 20 µM

C=C(CC[C@@H](C)[C@H]1CC[C@H]2C3=C(C(=O)C[C@]12C)[C@@]1(C)CCC(=O)[C@@H](C)[C@@H]1C[C@@H]3O)[C@H](C)C(=O)O [Compound I-16, antcin C]
IC50 [1, 7]: 4.2 µM
EC50 (μM) KB (KB (human cancer cell)): NA@20
IC50 (NADPH oxidase (NOX)): 22.6 ± 3.3 µM
EC50 (μM) KB-VIN [2]: NA@20

C=C(CC[C@@H](C)[C@H]1CC[C@H]2C3=C(C(=O)C[C@]12C)[C@@]1(C)CC[C@@H](O)[C@](C)(O)[C@@H]1C[C@@H]3O)C(C)C(=O)O (stereo partly shown) [Compound I-17, antcin K]
EC50 (μM) KB (KB (human cancer cell)): NA@20
IC50 (NADPH oxidase (NOX)): 47.2 ± 8.4 µM
EC50 (μM) KB-VIN [2]: NA@20

CC(C)[C@@H](C)/C=C/[C@@H](C)[C@H]1CC[C@H]2C3=CC[C@H]4C[C@@H](O)CC[C@]4(C)C3=CC[C@]12C [Compound I-20, ergosterol D]
IC50 [1, 7]: 30.6 ± 0.8 µM
IC50 (NADPH oxidase (NOX)): 27.9 ± 5.6 µM

C=C(CC[C@@H](C)[C@H]1CC[C@H]2C3=C(C(=O)C[C@]12C)[C@@]1(C)CCC(=O)[C@@H](C)C1CC3)C(C)C(=O)OC (stereo partly drawn) [Compound I-21, methyl 4α-methylergost-8,24(28)-dien-3,11-dion-26-oate]
IC50 [1]: 1.5 µM

CC(C)[C@@H](C)/C=C/[C@@H](C)[C@H]1CC[C@@H]2[C@]1(C)CC[C@H]1[C@]23C=C[C@]2(C[C@@H](O)CC[C@]12C)OO3 [Compound I-22, ergosterol peroxide]
IC50 [1, 7]: 6.3 ± 1.8 µM

C=C(C)C#Cc1c(C)c(OC)c(OC)c2c1OCO2 [II-2]
IC50 [1, 7]: 12.1 µM

COc1c(C)c(-c2c(C)c(OC)c3c(c2OC)OCO3)c(OC)c2c1OCO2 [II-7, 2,2′,5,5′-tetra-methoxy-3,4,3′,4′-bi-methylenedioxy-6,6′-dimethylbiphenyl]
IC50 [1, 7]: 16.2 ± 1.4 µM

COc1cc(C)c(OC)c2c1OCO2 [II-8, 4,7-dimethoxy-5-methyl-1,3-benzodioxole]
IC50 [1, 7]: 29.1 ± 4.4 µM

eburicol [Compound I-19]
EC50 (KB (human cancer cell)): > 20 µM
EC50 [2]: > 20 µM
